Test results: patent EP1080165B1, “HYDROCARBON LIQUID FORMULATION” (MACFARLAN SMITH LIMITED, priority 1998, dated 1999)

Experiments:
[1] = Evaluation of co-solvents for a clear stable formulation of denatonium benzoate in lamp oil; type: physicochemical; design: key to Assessment: Those combinations marked as "FAIL" were observed to exhibit turbidity and insufficient stability in the amount of denaturant introduced to the lamp oil; PASS: success in obtaining a clear stable formulation of the preferred denaturant; conditions: for Assessment: clear stable formulation of denatonium benzoate/"BITREX" in lamp oil, only the co-solvent varied
From the text: The following Table I summarises the results of this evaluation stage, and in particular assesses the success in obtaining a clear stable formulation of the preferred denaturant (denatonium benzoate/ "BITREX"®) in a target commercial product to be denatured (lamp oil). […] In each case, the only critical variation lay in the selection of the co-solvent. Apart from the attempted use of rape seed oil, it is assumed that the co-solvent is essentially a single chemical entity.
(§1) As an illustrative example of procedure, one may prepare a 40ppm "BITREX®" doped lamp oil by simply stirring in a previously prepared 0.1% solution of "BITREX®" in the selected co-solvent TEXANOL® to a level of 4% (all amounts described herein are w/w). A similar procedure was found effective in denaturing, white spirit, dearomatised white spirit, and isoparaffin.

[2] = Denaturing of other liquid hydrocarbons with a BITREX solution in TEXANOL; type: physicochemical; conditions: 0.1% solution of BITREX in co-solvent stirred in; white spirit, dearomatised white spirit and isoparaffin
From the text: as §1

[3] = Alkanol co-solvents enabling introduction of BITREX at the desired level; type: physicochemical; conditions: co-solvent for BITREX in liquid hydrocarbon
[4] = as low as; cited from earlier work
[5] = cited from earlier work

For CCCCCCCCCCCC(=O)OCC(CC)CCCC (centres unmarked) [2-Ethylhexyllaurate], the Assessment [1] was “FAIL”.
With CCCCC(CC)COC(=O)C(CC)CCCC (centres unmarked) [2-Ethylhexyl-2-ethylhexanoate] the Assessment [1] was “FAIL”.
In the case of “2,2,4-trimethylpentan-1,3-diol-monoisobutanoate”, the effective in denaturing [2] is reported as “effective”, the Assessment [1] is reported as “PASS” and the “effectiveness in achieving the objective of the invention” value ([1]; denatonium benzoate in lamp oil, summary of Table I) is reported as “highly effective”.
With CCCCCCCCCC(=O)OC(C)C [Isopropyldecanoate] the Assessment [1] was “FAIL”.
In the case of CCCCCCCCO [1-octanol], the “effective in enabling introduction of the preferred aversive agent "BITREX" at the desired level” value [3] is reported as “effective”.
For CCCCCCCCCCCC(=O)OC(C)C [Isopropyllaurate], the Assessment [1] was “FAIL”.
With CCCCCCCCCCCCCCCCO [1-hexadecanol] the “effective in enabling introduction of the preferred aversive agent "BITREX" at the desired level” value [3] was “effective”.
For CC[N+](CC)(CC(=O)Nc1c(C)cccc1C)Cc1ccccc1 [denatonium benzoate, Denatonium benzoate], the “concentration giving an acceptable level of aversive activity” value [4] is given as 10 ppm and the “solubility in apolar liquids” value [5] is given as “extremely insoluble”.
